Results as given in paper PMC3250956, “Functional characterization and analgesic effects of mixed cannabinoid receptor/T-type channel ligands” (Molecular Pain, 2011).

Legend:
human 5-HT2A = target: T1, human 5-HT2A (Homo sapiens, UniProt P28223); assay: Primary radioligand competitive binding assay, [3H]ketanserin; conditions: ligand 10 μM, HEK293 cells
T1 construct: expressed in transfected cells; host or cells: HEK293 (Flp-In system, pcDNA5.0FRT)
Procedure: (§1) HEK293 cells and CHO cells were used in the radioligand binding assay while tsA-201 cells were used in the electrophysiological study. Human CB2, human 5-HT2A, rat 5-HT2C used in the binding studies were cloned into pcDNA5.0FRT and cell lines were made using the FlpIn system from Invitrogen. tsA-201 cell culture and transient calcium channel transfection were performed as described previously. In brief, tsA-201 cells were transfected using the calcium phosphate method. Cav3.1, 3.2 and 3.3 α1 subunits were transfected individually with yellow fluorescent protein as a transfection marker.
(§2) Radioligand binding data were obtained using National Institute of Mental Health's Psychoactive Drug Screening Program (NIMH/PDSP) using the same protocol described for CB1 and CB2 binding experiments. Transfected HEK293 (human 5-HT2A or rat 5-HT2C) cells were used. The radioligands were [^3H]ketanserin (0.5 nM) and [^3H]mesulergine (0.5 nM) for respectively 5-HT2A and 5-HT2C experiments. Non-specific binding was determined in the presence of 10 μM chlorpromazine for both 5-HT2A and 5-HT2C binding experiments. Cells were harvested and homogenized in 50 mM Tris HCl, 10 mM MgCl2, 0.1 mM EDTA, pH 7.4. Incubation of radioreceptor binding assay mixtures was 1.5 hours at room temperature in the dark.

rat 5-HT2C = target: T2, rat 5-HT2C (Rattus norvegicus, UniProt P08909); assay: Primary radioligand competitive binding assay, [3H]mesulergine; conditions: ligand 10 μM, HEK293 cells
T2 construct: expressed in transfected cells; host or cells: HEK293 (Flp-In system, pcDNA5.0FRT)
T2 sequence (P08909 33-460): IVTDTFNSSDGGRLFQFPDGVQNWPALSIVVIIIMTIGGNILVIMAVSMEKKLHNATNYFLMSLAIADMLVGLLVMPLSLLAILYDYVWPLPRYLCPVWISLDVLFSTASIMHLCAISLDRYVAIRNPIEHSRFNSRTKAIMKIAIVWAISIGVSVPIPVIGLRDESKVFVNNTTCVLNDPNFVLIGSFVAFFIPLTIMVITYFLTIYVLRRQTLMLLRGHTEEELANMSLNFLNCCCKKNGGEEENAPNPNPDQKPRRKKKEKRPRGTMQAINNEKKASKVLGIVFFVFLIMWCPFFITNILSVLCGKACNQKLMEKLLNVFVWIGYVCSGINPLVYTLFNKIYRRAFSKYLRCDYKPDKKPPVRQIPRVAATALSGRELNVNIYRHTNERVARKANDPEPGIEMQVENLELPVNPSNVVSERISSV
Procedure: as §1, §2

Rat CB1 = target: T3, Rat CB1 (Rattus norvegicus, UniProt P20272); assay: Radioligand competitive binding, [3H]CP55940, rat brain homogenate
T3 construct: membrane fractions prepared from rat brain homogenate expressing CB1 receptor; from tissue; host or cells: rat brain homogenate
Procedure: (§3) CB1 and CB2 radioligand binding data were obtained using National Institute of Mental Health (NIMH) Psychoactive Drug Screening Program (PDSP) resources as described earlier. Compounds were screened in a competitive binding experiment using, respectively, membrane fractions prepared from rat brain homogenate expressing CB1 receptor and HEK293 cells expressing the human CB2 receptor. Experiments were conducted at a range of different concentrations and in duplicate. The competition binding experiment for CB1 and CB2 was performed in 96 well plates containing Standard Binding Buffer (50 mM Tris HCl, 1 mM EDTA, 3 mM MgCl2, 5 mg/ml fatty acid-free BSA, pH 7.4). The radioligand was [^3H]CP55940, and the reference compound was CP55940. A solution of the compound to be tested was prepared as a 1 mg/ml stock in DMSO and then diluted in Standard Binding Buffer by serial dilution. Radioligand was diluted to five times the assay concentration in Standard Binding Buffer. Aliquots (50 μl) of radioligand were dispensed into the wells of a 96-well plate containing 100 μl of Standard Binding Buffer. Then, duplicate 50-μl aliquots of the test and reference compound dilutions were added. Finally, crude membrane fractions of cells were resuspended in 3 ml of chilled Standard Binding Buffer and homogenized by several passages through a 26 gauge needle, then 50 μl were dispensed into each well. The 250-μl reactions were incubated at room temperature for 1.5 hours, and then harvested by rapid filtration onto Whatman GF/B glass fiber filters pre-soaked with 0.3% polyethyleneimine using a 96-well Brandel harverster. Four rapid 500-μl washes were performed. Filters were placed in 6-ml scintillation tubes and allowed to dry overnight. Bound radioactivity was harvested onto 0.3% polyethyleneimine-treated, 96-well filter mats using a 96-well Filtermate harvester. The filter mats were dried, then scintillant was melted onto the filters and the radioactivity retained on the filters counted in a Microbeta scintillation counter. Raw data (dpm) representing total radioligand binding (i.e., specific + non-specific binding) were plotted as a function of the logarithm of the molar concentration of the competitor (i.e., test or reference compound). Non-linear regression of the normalized (i.e., percent radioligand binding compared to that observed in the absence of test or reference compound) raw data was performed in Prism 4.0 (GraphPad Software) using the built-in three parameter logistic model describing ligand competition binding to radioligand-labeled sites: y = bottom + [(top-bottom)/(1 + 10 × -logIC50)] where bottom equals the residual radioligand binding measured in the presence of 10 μM reference compound (i.e., non-specific binding) and top equals the total radioligand binding observed in the absence of competitor. The log IC50 (i.e., the log of the ligand concentration that reduces radioligand binding by 50%) is thus estimated from the data and used to obtain the Ki by applying the Cheng-Prusoff approximation: Ki = IC50/(1 + [ligand]/KD) where [ligand] equals the assay radioligand concentration and KD equals the affinity constant of the radioligand for the target receptor.

Human CB2 [1] = target: T4, Human CB2 (Homo sapiens, UniProt P34972); assay: Radioligand competitive binding, [3H]CP55940, HEK293 cells; design: expressed in transfected cells
Procedure: as §1, §3

Cav3.2 = target: T5, Cav3.2 (Homo sapiens, UniProt O95180); assay: Whole-cell patch-clamp on Cav3.2: concentration-response and steady-state inactivation; format: cell-based; conditions: 10 μM
T5 construct: expressed in transfected cells; host or cells: tsA-201 cells, transient calcium phosphate transfection
Procedure: To further characterize compounds NMP-4, NMP-7 and NMP-144, we investigated the concentration dependence of their action on Cav3.2, the major T-type calcium channel subtype implicated in the afferent pain pathway (Figure 2B, C).
To determine whether these compounds also affected inactivated channels, we recorded steady-state inactivation curves prior and after application of NMP-4, NMP-7 or NMP-144.
Whole-cell currents were recorded from tsa-201 cells 2-4 days after transfection. The external recording solution contained (in mM): BaCl2 (20), MgCl2 (1), HEPES (10), TEA-Cl (40), CsCl (65), d-glucose (10) and pH 7.2 adjusted with TEA-OH. The internal pipette solution was composed of (in mM) Cs-methanesulfonate (108), MgCl2 (4), EGTA (9), HEPES (9) and pH 7.2 adjusted with CsOH. The internal solution was supplemented with 0.6 mM GTP (sodium salt) and 2 mM ATP (tris salt), which were added directly to the internal solution immediately prior to use. Pipettes with a resistance of 2~5 MΩ when filled with internal solution were used for recording. Currents were elicited from a holding potential of -100 mV and were measured by conventional whole-cell patch clamp using an Axopatch 200B amplifier in combination with Clampex 9.2 software (Axon Instruments, Foster City, CA). Data were filtered at 1 kHz (8-pole Bessel) and digitized at 10 kHz with a Digidata 1320 (Axon Instruments, Foster City, CA). Series resistance were compensated by 85% in all experiments. An online P/4 programme was used to subtract the leak currents. Drugs were dissolved in DMSO at the following stock concentrations: 20 mM for NMP-4 and NMP-7, and 10 mM for NMP-139, NMP-140, NMP-141 and NMP-144. Prior to the experiment, drugs were diluted into external recording solution with a final DMSO concentration no higher than 0.3%. DMSO was also included in the control solution. Drug delivery was controlled by a Valvelink8.2 fast perfusion system (Automate Scientific Inc., Berkeley, CA). The perfusion tip was positioned a few hundred microns from the cell and kept as constant as possible throughout the experiments. Electrophysiological data were analyzed using Clampfit 9.2 (Axon Instruments, Foster City, CA) and GraphPad Prism 5 software (GraphPad Software Inc., San Diego, CA). […] Steady-state inactivation curves were fitted using the Boltzmann equation: I = 1/(1 + e ^(V-Vh)/k), where Vh is the half inactivating potential and k is the slope factor.

formalin-induced pain = assay: Formalin test (formalin-induced nociception); format: in vivo, mice
Procedure: All experiments were conducted following the protocol approved by the Institutional Animal Care and Use Committee (protocol #M09130) and all efforts were made to minimize animal suffering. Male mice of C57BL/6J strain weighing 25~30 g, 10 weeks old were used. Animals were housed at a maximum number of five per cage (30 × 20 × 15 cm) with food and water ad libitum. They were kept in 12 h light/dark cycles (lights on at 7:00 a.m.) at a temperature of 23 ± 1°C. All manipulations were carried out between 11:00 am and 3:00 pm. […] Control animals received the same vehicle used to dilute the compounds. When drugs were delivered by intraperitoneal (i.p.) route, a constant volume of 10 ml/kg body weight was injected. When drugs were administered by intrathecal (i.t.) or intraplantar (i.pl.) routes, respectively volumes of 5 μl or 20 μl were injected. Appropriate vehicle-treated groups were also assessed simultaneously.
The formalin test is a widely used model that allows us to evaluate two different types of pain: neurogenic pain (phase 1) is caused by direct activation of nociceptive nerve terminals, while inflammatory pain (phase 2) is mediated by a combination of peripheral input and spinal cord sensitization. Animals received 20 μl of a formalin solution (1.25%) made up in PBS injected intraplantarly (i.pl.) in the ventral surface of the right hindpaw. Following i.pl. injection of formalin, the animals were immediately placed individually into observation chambers and the time spent licking or biting the injected paw was be recorded and considered as nociceptive response. We observed animals individually from 0-5 min (neurogenic phase) and 15-30 min (inflammatory phase).
Intrathecal injections were given to fully conscious mice using the method previously described by Hylden and Wilcox. Briefly, the animals were manually restrained, and a 30-gauge needle connected by a polyethylene tube to a 25 μl Hamilton syringe (Hamilton, Birmingham, UK) was inserted through the skin and between the vertebrae into the […] space of the L5-L6 spinal segments. Intrathecal injections were given over a period of 5 seconds.

locomotor activity = assay: Open-field test; format: in vivo, mice; conditions: 1 mg/kg i.p., 30 minutes before the experiment; data not shown
Source text: We then delivered NMP-7 via the intrperitoneal route.

Human CB1 = Human CB1 (Homo sapiens, UniProt P21554); assay: GTPγ[35S] functional assay, CHO cell membrane extracts; design: Emax: dose or concentration left out as unconfirmed
Human CB2 [2] = target: T4, Human CB2; assay: as above; format: biochemical; design: expressed in transfected cells; host or cells: CHO cells (membrane extracts)
[3] = 1 mg/kg i.p., 30 min before behavioural assessment
[4] = i.t., 10 min prior, NMP-4 1-10 μg/i.t., NMP-144 0.1-1 μg/i.t., NMP-7 3-30 μg/i.t., mice

T4 sequence (P34972 whole entry): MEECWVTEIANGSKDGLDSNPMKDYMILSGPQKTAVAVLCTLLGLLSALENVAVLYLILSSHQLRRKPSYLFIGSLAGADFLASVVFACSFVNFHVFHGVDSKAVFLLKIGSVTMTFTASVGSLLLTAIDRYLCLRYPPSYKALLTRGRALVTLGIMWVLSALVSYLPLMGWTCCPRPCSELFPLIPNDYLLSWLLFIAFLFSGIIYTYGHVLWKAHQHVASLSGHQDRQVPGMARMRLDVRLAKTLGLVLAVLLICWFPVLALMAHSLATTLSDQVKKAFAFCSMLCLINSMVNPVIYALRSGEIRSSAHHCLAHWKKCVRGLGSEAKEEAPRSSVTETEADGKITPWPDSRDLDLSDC
Human CB1, sequence (P21554 whole entry): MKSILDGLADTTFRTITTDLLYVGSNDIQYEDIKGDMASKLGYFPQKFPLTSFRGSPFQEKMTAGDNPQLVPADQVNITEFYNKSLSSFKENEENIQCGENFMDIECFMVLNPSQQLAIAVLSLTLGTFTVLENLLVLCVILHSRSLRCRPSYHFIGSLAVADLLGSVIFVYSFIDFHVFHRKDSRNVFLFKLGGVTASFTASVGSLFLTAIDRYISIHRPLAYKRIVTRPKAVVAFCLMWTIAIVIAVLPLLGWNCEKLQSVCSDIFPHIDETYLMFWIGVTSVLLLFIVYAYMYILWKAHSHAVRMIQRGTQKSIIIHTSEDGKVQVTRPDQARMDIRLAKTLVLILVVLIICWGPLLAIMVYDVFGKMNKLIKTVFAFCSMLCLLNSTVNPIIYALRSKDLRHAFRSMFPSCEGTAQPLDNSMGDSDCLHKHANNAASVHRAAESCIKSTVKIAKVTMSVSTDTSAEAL
T5 sequence (O95180 whole entry): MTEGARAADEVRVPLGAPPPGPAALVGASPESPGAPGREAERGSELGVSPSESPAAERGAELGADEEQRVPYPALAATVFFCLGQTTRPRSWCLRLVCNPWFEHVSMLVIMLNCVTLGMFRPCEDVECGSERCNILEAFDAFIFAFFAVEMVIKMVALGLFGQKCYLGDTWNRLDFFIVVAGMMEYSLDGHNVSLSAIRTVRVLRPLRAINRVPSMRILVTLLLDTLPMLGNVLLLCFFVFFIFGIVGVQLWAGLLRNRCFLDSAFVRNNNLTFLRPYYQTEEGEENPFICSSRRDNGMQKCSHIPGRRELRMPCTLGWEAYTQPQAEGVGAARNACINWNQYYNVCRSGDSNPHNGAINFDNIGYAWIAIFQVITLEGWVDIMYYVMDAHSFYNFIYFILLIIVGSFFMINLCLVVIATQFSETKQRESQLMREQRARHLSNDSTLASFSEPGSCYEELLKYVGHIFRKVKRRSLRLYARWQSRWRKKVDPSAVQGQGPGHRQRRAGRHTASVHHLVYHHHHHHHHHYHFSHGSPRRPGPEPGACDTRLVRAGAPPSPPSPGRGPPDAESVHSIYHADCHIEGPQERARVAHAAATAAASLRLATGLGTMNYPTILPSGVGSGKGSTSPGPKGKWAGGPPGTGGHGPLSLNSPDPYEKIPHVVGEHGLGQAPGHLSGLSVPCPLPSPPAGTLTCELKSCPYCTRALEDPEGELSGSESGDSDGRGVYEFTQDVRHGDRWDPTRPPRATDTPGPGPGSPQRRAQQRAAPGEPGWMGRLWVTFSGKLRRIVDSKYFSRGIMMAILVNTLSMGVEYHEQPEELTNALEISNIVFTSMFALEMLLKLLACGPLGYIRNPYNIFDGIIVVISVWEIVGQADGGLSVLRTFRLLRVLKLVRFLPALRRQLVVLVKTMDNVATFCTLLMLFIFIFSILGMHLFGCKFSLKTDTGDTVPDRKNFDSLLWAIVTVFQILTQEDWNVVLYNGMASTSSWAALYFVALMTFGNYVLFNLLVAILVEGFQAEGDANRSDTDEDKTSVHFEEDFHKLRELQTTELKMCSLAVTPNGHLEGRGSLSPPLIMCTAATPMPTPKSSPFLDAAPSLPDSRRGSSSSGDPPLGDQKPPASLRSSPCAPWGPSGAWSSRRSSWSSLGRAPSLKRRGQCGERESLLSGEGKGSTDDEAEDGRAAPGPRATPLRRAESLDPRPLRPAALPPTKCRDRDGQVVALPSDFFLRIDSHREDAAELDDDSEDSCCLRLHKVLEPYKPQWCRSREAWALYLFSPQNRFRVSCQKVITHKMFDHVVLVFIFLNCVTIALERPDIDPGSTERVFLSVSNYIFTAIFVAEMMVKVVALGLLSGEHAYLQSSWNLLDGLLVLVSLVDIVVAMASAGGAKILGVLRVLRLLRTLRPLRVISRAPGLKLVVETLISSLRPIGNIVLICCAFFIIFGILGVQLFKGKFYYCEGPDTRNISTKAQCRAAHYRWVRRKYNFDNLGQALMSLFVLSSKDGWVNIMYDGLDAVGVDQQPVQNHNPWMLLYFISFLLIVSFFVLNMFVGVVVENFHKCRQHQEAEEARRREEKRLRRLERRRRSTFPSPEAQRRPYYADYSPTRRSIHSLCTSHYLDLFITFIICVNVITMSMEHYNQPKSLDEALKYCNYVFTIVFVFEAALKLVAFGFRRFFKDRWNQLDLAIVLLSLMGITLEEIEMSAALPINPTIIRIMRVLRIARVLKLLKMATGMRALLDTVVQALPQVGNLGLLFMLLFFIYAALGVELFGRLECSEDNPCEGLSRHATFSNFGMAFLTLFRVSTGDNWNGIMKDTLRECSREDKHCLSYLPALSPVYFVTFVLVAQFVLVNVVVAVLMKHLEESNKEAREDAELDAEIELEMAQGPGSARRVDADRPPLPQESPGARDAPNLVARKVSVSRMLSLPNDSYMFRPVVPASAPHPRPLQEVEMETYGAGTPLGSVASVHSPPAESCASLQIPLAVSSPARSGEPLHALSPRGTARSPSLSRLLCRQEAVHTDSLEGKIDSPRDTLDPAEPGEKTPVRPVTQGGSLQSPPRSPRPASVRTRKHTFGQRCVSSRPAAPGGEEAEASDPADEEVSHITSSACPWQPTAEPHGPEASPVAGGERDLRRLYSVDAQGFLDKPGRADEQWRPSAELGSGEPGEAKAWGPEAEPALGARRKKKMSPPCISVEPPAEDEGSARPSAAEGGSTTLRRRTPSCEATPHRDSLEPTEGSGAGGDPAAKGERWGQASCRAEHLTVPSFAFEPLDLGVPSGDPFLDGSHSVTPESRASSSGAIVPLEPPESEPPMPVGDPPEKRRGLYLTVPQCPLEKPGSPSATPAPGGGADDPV
T3 sequence (P20272 whole entry): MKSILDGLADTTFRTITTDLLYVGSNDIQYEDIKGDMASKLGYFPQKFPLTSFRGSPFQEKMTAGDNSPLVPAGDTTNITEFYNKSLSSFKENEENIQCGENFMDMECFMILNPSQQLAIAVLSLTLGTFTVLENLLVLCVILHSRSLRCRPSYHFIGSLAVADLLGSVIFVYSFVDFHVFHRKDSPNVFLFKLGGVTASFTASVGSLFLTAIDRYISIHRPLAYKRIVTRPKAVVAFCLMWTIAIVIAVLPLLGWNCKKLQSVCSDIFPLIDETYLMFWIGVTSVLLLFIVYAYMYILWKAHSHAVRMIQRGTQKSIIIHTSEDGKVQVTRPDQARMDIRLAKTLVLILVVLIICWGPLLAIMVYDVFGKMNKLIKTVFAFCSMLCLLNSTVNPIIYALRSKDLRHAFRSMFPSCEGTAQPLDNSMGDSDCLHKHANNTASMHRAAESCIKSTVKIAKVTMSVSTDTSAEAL
T1 sequence (P28223 whole entry): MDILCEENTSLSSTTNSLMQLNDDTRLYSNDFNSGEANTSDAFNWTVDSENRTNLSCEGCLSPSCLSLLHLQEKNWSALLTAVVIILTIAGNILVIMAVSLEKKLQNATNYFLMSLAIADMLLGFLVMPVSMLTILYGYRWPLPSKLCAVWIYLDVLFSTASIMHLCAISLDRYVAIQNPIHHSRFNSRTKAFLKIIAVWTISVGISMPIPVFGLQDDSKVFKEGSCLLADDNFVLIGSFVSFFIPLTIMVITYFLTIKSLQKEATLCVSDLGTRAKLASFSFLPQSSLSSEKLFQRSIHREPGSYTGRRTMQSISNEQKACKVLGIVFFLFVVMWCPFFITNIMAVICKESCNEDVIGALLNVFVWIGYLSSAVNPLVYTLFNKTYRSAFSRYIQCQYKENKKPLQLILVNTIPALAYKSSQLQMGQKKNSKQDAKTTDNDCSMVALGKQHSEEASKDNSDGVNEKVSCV

Structure (SMILES) | Human 5-HT2A (%) primary radioligand competitive binding (human 5-HT2A) | Rat 5-HT2C (%) primary radioligand competitive binding (rat 5-HT2C) | Ki (Rat CB1; NA: not active at 1 μM, read-out: Mean Ki Rat CB1) | Rat CB1 (%) primary radioligand competitive binding (Rat CB1; ligand 10 μM, rat brain homogenates) | Ki (Human CB2 [1]; NA: not active at 1 μM, read-out: Mean Ki Human CB2) | Human CB2 (%) primary radioligand competitive binding (Human CB2 [1]; ligand 10 μM, HEK293 cells) | hyperpolarizing shift in the half inactivation potential of Cav3.2 channels (Cav3.2) | half-inactivation potential after treatment with drug (Cav3.2; n = 4) | inhibition of the pain responses in phase 1 (formalin-induced pain; [3]) | inhibition of the pain responses in phase 2 (formalin-induced pain; [3]) | effect on first phase of formalin-induced nociception (formalin-induced pain; i.pl., co-injected with formalin, NMP-4 and NMP-144 0.03-3 μg/paw, NMP-7 0.3-3 μg/i.pl.) | reduction of pain response time, first (neurogenic) phase (formalin-induced pain; [4]) | reduction of pain response time, second (inflammatory) phase (formalin-induced pain; [4]) | locomotor activity in the open-field test (locomotor activity) | EC50 (Human CB1) | Emax (Human CB1; read-out: GTPγ[35S] functional assays Human CB1 Emax) | EC50 (Human CB2 [2]) | Emax (Human CB2 [2]; read-out: GTPγ[35S] functional assays Human CB2 Emax)
CCCCCn1c2c(c3ccccc31)C[C@H](C(=O)N1CCCCC1)NC2 [NMP-140] | 11.2% | -4.2% | 1250 ± 290 nM | 79.3% | 2870 ± 515 nM | 71.1% | – | – | – | – | – | – | – | – | – | – | – | –
CCCCCn1c2ccccc2c2cc(C(=O)N3CCCCC3)ccc21 [NMP-7] | – | – | – | – | – | – | 13 mV | -63.3 ± 3.5 mV | 92 ± 7% | 94 ± 6% | able to inhibit the first phase | significant inhibition | significant inhibition | did not alter locomotor activity | 96.9 ± 11.9 nM | 73.6% | 10.5 ± 1.8 nM | 30.8%
